Source: patent US20090054971A1, “DRUG ELUTING STENT SYSTEM AND MANUFACTURING PROCESS OF DRUG ELUTING STENT SYSTEM” (TERUMO KABUSHIKI KAISHA, priority 2005, published 2009)

Experiment: Storage stability of the rapamycin derivative (bulk, in glass bottle), percent residual by HPLC
Type: physicochemical
Protocol: A biologically/physiologically active substance and a deoxidant were placed and sealed within a package. After stored at 40° C. for four weeks, the remaining amount of the biologically/physiologically active substance was measured by high speed liquid chromatography (HPLC) to determine its percent residue.
Biologically/physiologically active substance: A rapamycin derivative represented by the following chemical formula (I) (product of Nippon Kayaku Co., Ltd.). An aliquot (0.03 g) of the rapamycin derivative was placed in a glass bottle, and further, the glass bottle was placed within the below-described package.
Deoxidant: “ZH-100” (product of Mitsubishi Gas Chemical Co, Inc.). Two bags, the volume of each bag being sufficient for 100 mL, were placed and sealed within the package.
Package: An aluminum pouch in the form of a bag of a size of 300 mm in length, 300 mm in width and 0.1 mm in thickness, which was formed of a stacked structure of polyethylene terephthalate, low-density polyethylene, an aluminum film, low-density polyethylene and high-density polyethylene as materials.
After stored in the above-described state at 40° C. for four weeks, the biologically/physiologically active substance was taken out of the package and was provided as “Sample A1” for HPLC. […]
By the following equation, the percent residual of the rapamycin derivative in Sample A1 was determined. […]

| Percent residual (%) (stored in air at 40° C. for four weeks) | Percent residual (%) (sealed with deoxidant ZH-100 in aluminum pouch, stored at 40° C. for four weeks) | SMILES |
| --- | --- | --- |
| 18.2 |  | CCOCCOC1CCC(CC(C)C2CC(=O)C(C)C(O)C(C)C(O)C(OC)C(=O)C(C)CC(C)/C=C/C=C/C=C(\C)C(OC)CC3CCC(C)C(O)(O3)C(O)C(=O)N3CCCCC3C(=O)O2)CC1OC (centres unmarked) [Comparative Example 1] |
|  | 97.3 | CCOCCOC1CCC(CC(C)C2CC(=O)C(C)C(O)C(C)C(O)C(OC)C(=O)C(C)CC(C)/C=C/C=C/C=C(\C)C(OC)CC3CCC(C)C(O)(O3)C(O)C(=O)N3CCCCC3C(=O)O2)CC1OC (centres unmarked) [Example 1] |
